Measured values from US20050059585A1, “Methionine aminopeptidase-2 inhibitors and methods of use thereof” (Praecis Pharmaceuticals Inc., priority 2000, published 2005).

Experiments:
SR lymphoma tumor = assay: In vivo efficacy in SR lymphoma cell tumors grown in mice
Procedure: SR lymphoma tumor cells were injected subcutaneously into SCID/NCr female mice. Tumors were measured using a caliper every 3-4 days beginning on day 12 post-implantation of tumor cells. Animals were weighed routinely on the same days as tumor measurments and monitored for clinical signs of any adverse, drug-related side effects. Treatment with Compound 5 or vehicle began on Day 12 for 5 weeks and ended on Day 44. The endpoints evaluated were optimal percent treated/control (% T/C) and tumor growth delay measured at multiple timepoints during the study.

Pfeiffer = assay: Inhibition of GC derived B cell lymphoma lines in culture; format: cell-based
D10 = assay: as above; format: cell-based; details: D10, FL
[1] = system: bovine aortic endothelial cell; assay: bovine aortic endothelial cell growth assay (Baec assay); format: cell-based; details: Bos taurus, BAEC; read-out: IC50 (pM), Baec Assay
Procedure: The angiogenesis inhibitor compounds of the invention were tested for their ability to modulate human endothelial cell growth and for their ability to modulate the activity of MetAP2. The MetAP2 enzyme assay was performed essentially as described in Turk, B. et al. (1999) Chem. & Bio. 6: 823-833, the entire contents of which are incorporated herein by reference. The bovine aortic endothelial cell growth assay (Baec assay) was performed essentially as described in Turk, B. et al. (supra), the entire contents of which are incorporated herein by reference.

NCI/ADR-RES = assay: tumor cell line panel, SRB growth assay; format: cell-based; details: Homo sapiens, Breast, 48 hours
Outline: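 Absorbance at 515 nm of TCA-fixed, SRB-stained cells gives percentage growth against time-zero and untreated controls. Drug exposure lasted 48 h at five concentrations, following 24 h of growth in RPMI 1640 containing 5% FBS. GI50 marks a 50% drop in net protein increase.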

ST486 = assay: Inhibition of GC derived B cell lymphoma lines in culture; format: cell-based

## CO[C@@H]1[C@H](OC(=O)N[C@@H](C(N)=O)C(C)C)CC[C@]2(CO2)[C@H]1[C@@]1(C)O[C@@H]1CC=C(C)C [Example 5, (1-Carbamoyl-2-methyl-propyl)-carbamic acid-(3R, 4S, 5S, 6R )-5-methoxy-4-[(2R, 3R)-2-methyl-3-(3-methyl-but-2-enyl)-oxiranyl]-1-oxa-spiro[2.5]oct-6-yl ester]
SR lymphoma tumor; oral route, 15 mg/kg
  optimal % T/C: 48%
SR lymphoma tumor; oral route, 30 mg/kg
  optimal % T/C: 43%
SR lymphoma tumor; orally, 15 mg/kg
  tumor growth delay: 29%
SR lymphoma tumor; orally, 30 mg/kg
  tumor growth delay: 28%
SR lymphoma tumor; subcutaneous route, 15 mg/kg
  tumor growth delay: 18%
SR lymphoma tumor; subcutaneous route, 30 mg/kg
  tumor growth delay: 19%
SR lymphoma tumor; subcutaneously, 15 mg/kg
  optimal % T/C: 70%
SR lymphoma tumor; subcutaneously, 30 mg/kg
  optimal % T/C: 50%
Pfeiffer; DLBCL, 0.01-100 nM, five or six days
  Growth Inhibition Relative to Vehicle Control, Maximum Inhibition: 54%
Pfeiffer; Homo sapiens, read-out: Growth Inhibition Relative to Vehicle Control, GI50%
  GI50: 0.27 nM
D10; B-cell, estimated, read-out: Growth Inhibition Relative to Vehicle Control, GI50%
  GI50: 0.42 nM
D10; 0.01-100 nM, five or six days
  Growth Inhibition Relative to Vehicle Control, Maximum Inhibition: 59%
[1]
  IC50: 46 pM
NCI/ADR-RES
  GI50: 34200 nM
ST486; Homo sapiens, ST486, read-out: Growth Inhibition Relative to Vehicle Control, GI50%
  GI50: 0.22 nM
ST486; ST486, BL, 0.01-100 nM, five or six days
  Growth Inhibition Relative to Vehicle Control, Maximum Inhibition: 53%
